US11952365B2, “Anti-viral compounds” (Aligos Therapeutics, Inc., priority 2020, dated 2024)
Read-outs that look alike come from different tables or passages of the source.

What was measured:
[1] = biological target: 3CLpro (Severe acute respiratory syndrome coronavirus 2, UniProt P0DTD1); test: SARS-CoV-2 3CLpro protease assay (duplex, SAMDI-MS); type: biochemical; set-up: For the duplex assay, 3CLpro and HRV3C was added; details: 3CLpro, 30 mins preincubation, class symbols; read-out: SARS-Cov-2 IC50
[2] = tested on: SARS-CoV-2-GHB-03021/2020; test: microbe, parasite or virus in culture; type: cell-based; details: Severe acute respiratory syndrome coronavirus 2, Vero C1008, 96 h; read-out: VeroE6 + CP (EC50)
[3] = in vitro; details: African green monkey, VeroE6 + CP (CC50), Vero E6-eGFP cells with CP-100356, absence of virus, MTS
[4] = biological target: T1, human cathepsin L (Homo sapiens, UniProt P07711); test: cathepsin L assay; type: biochemical; details: 10 pM human cathepsin L, Z-FR-AMC 2 μM, class symbols
T1 construct: purchased R&D Systems
Outline: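 Reactions began by adding 2 μM (final) Z-FR-AMC substrate to 10 pM human cathepsin L that had been preincubated 30 min with inhibitor. Kinetic AMC fluorescence at 355/460 nm over 30 min at 2-min intervals; four-parameter fitting gave IC50 values.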

[5] = Cytotoxicity plates without OC43 virus (cell-titer-glo); type: cell-based, human; details: human; HeLa cells without OC43 virus, class symbols
Outline: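 Run as a virus-free counterpart of the OC43 cytopathic-effect assay. Attached HeLa cells received compound dilutions in EMEM with 2% FBS and were kept 6 days at 33 °C. Cell viability was then measured by CellTiter-Glo luminescence.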

[6] = tested on: SARS-CoV-2-GHB-03021/2020; test: SARS-CoV-2 Infection Model in Huh7 Cells; type: cell-based; details: Severe acute respiratory syndrome coronavirus 2, Huh-7, 96 h, SARS-CoV-2, day 4 p.i., MTS
[7] = biological target: HRV3C (Human rhinovirus 14, UniProt P03303); test: HRV3C protease assay (duplex, SAMDI-MS); type: biochemical, HRV; details: 30 mins preincubation
Outline: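 Compounds are preincubated 30 min with the protease pair before substrate addition, and cleavage proceeds 30 min at room temperature. Product peptides are measured by SAMDI-MS relative to internal standards, with IC50 obtained from a four-parameter fit.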

[8] = in vitro; details: human
[9] = tested on: human beta-coronavirus OC43; test: microbe, parasite or virus in culture; type: cell-based; details: Betacoronavirus 1, OC43, HeLa, 144 h, OC43 in HeLa cells, 6 days at 33° C., class symbols; read-out: EC50
[10] = HRV3C, bound, read-out: HRV IC50
[11] = HRV3C, class symbols, read-out: HRV IC50

Compound | IC50 [1] [nM] | EC50 [2] [nM] | CC50 ([3]; numeric bounds) [nM] | IC50 [4] [nM] | CC50 at 6 days [5] [nM] | EC50 ([6]; class symbols) [nM] | IC50 [7, 10] [nM] | CC50 [8] [nM] | EC50 [9] [nM] | IC50 [7, 11] [nM] | EC50 ([6]; numeric bounds) [nM] | CC50 ([3]; class symbols) [nM] | IC50 ([7]; HRV IC50, HRV3C, class symbols) [nM]
O=C1NCC[C@H]1C[C@H](NC(=O)[C@@H]1[C@H]2CCC[C@H]2CN1C(=O)c1cc2c(Cl)cc(Cl)c(F)c2[nH]1)C(=O)CO [Compound 160, (1S,3aR,6aS)-2-(4,6-dichloro-7-fluoro-1H-indole-2-carbonyl)-N—((S)-4-hydroxy-3-oxo-1-((S)-2-oxopyrrolidin-3-yl)butan-2-yl)octahydrocyclopenta[c]pyrrole-1-carboxamide] | < 20 | < 1000 | > 50000 | ≥ 10000 | > 10000 | < 1000 | > 10000 | > 10000 | 100 to 1000 | – | – | – | –
O=C1NCC[C@H]1C[C@H](NC(=O)[C@@H]1[C@H]2CCC[C@H]2CN1C(=O)c1cc2c(Cl)cc(C(F)(F)F)cc2[nH]1)C(=O)CO [Compound 161, (1S,3aR,6aS)-2-[4-chloro-6-(trifluoromethyl)-1H-indole-2-carbonyl]-N-[(2S)-4-hydroxy-3-oxo-1-[(3S)-2-oxopyrrolidin-3-yl]butan-2-yl]-hexahydro-1H-cyclopenta[c]pyrrole-1-carboxamide] | 20 to 200 | 1000 to 10000 | > 50000 | ≥ 10000 | > 10000 | < 1000 | > 10000 | > 10000 | < 100 | – | – | – | –
O=C1NCC[C@H]1C[C@H](NC(=O)[C@@H]1[C@H]2CCC[C@H]2CN1C(=O)c1cc2c(Cl)cc(F)c(Cl)c2[nH]1)C(=O)CO [Compound 162, (1S,3aR,6aS)-2-(4,7-dichloro-6-fluoro-1H-indole-2-carbonyl)-N-[(2S)-4-hydroxy-3-oxo-1-[(3S)-2-oxopyrrolidin-3-yl]butan-2-yl]-hexahydro-1H-cyclopenta[c]pyrrole-1-carboxamide] | < 20 | < 1000 | > 50000 | ≥ 10000 | > 10000 | < 1000 | – | > 50000 | < 100 | 2000 to 20000 | – | – | –
COc1cc(C(F)(F)F)cc2[nH]c(C(=O)N3C[C@@H]4CCC[C@@H]4[C@H]3C(=O)N[C@@H](C[C@@H]3CCNC3=O)C(=O)CO)cc12 [Compound 163, (1S,3aR,6aS)—N—((S)-4-hydroxy-3-oxo-1-((S)-2-oxopyrrolidin-3-yl)butan-2-yl)-2-(4-methoxy-6-(trifluoromethyl)-1H-indole-2-carbonyl)octahydrocyclopenta[c]pyrrole-1-carboxamide] | < 20 | 1000 to 10000 | > 50000 | ≥ 10000 | > 10000 | 1000 to 10000 | – | > 50000 | < 100 | 2000 to 20000 | – | – | –
O=C(NC1CC1)C(=O)[C@H](C[C@@H]1CCNC1=O)NC(=O)[C@@H]1CC2(CCN1C(=O)c1cc3c(F)cccc3[nH]1)CC2 [Compound 164] | < 20 | 10000 to 100000 | > 50000 | 1000 to 10000 | > 10000 | – | – | 1000 to 10000 | 1000 to 10000 | 200 to 2000 | > 10000 | – | –
O=C(NC1CC1)C(=O)[C@H](C[C@@H]1CCNC1=O)NC(=O)[C@@H]1CC2(CCN1C(=O)c1cc3ccccc3s1)CC2 [Compound 165] | 20 to 200 | < 1000 | > 50000 | 1000 to 10000 | > 10000 | < 1000 | – | > 10000 | 100 to 1000 | 200 to 2000 | – | – | –
O=C(NCCOC1CCCC1)C(=O)[C@H](C[C@@H]1CCNC1=O)NC(=O)[C@@H]1[C@H]2CCC[C@H]2CN1C(=O)c1cc2c(Cl)cc(Cl)cc2[nH]1 [Compound 166] | < 20 | < 1000 | – | 1000 to 10000 | > 10000 | < 1000 | > 10000 | 1000 to 10000 | 100 to 1000 | – | – | > 10000 | –
N#C[C@H](C[C@@H]1CCNC1=O)NC(=O)[C@@H]1[C@H]2CCC[C@H]2CN1C(=O)c1cc2c(Cl)ccc(Cl)c2[nH]1 [Compound 167, (1S,3aR,6aS)—N-[(1S)-1-cyano-2-[(3S)-2-oxopyrrolidin-3-yl]ethyl]-2-(4,7-dichloro-1H-indole-2-carbonyl)-hexahydro-1H-cyclopenta[c]pyrrole-1-carboxamide] | 200 to 2000 | < 1000 | > 50000 | ≥ 10000 | > 10000 | < 1000 | > 10000 | > 10000 | 100 to 1000 | – | – | – | –
O=C1NCC[C@H]1C[C@H](NC(=O)[C@@H]1[C@H]2CCC[C@H]2CN1C(=O)c1cc2c(Cl)ccc(-c3ccccc3)c2[nH]1)C(=O)CO [Compound 168, (1S,3aR,6aS)-2-(4-chloro-7-phenyl-1H-indole-2-carbonyl)-N-[(2S)-4-hydroxy-3-oxo-1-[(3S)-2-oxopyrrolidin-3-yl]butan-2-yl]-hexahydro-1H-cyclopenta[c]pyrrole-1-carboxamide] | 200 to 2000 | 1000 to 10000 | > 50000 | ≥ 10000 | > 10000 | 1000 to 10000 | > 10000 | > 10000 | 1000 to 10000 | – | – | – | –
Cc1cccc2[nH]c(C(=O)N3CCC4(CC4)C[C@H]3C(=O)N[C@@H](C[C@@H]3CCNC3=O)C(=O)C(=O)NC3CC3)cc12 [Compound 169] | 20 to 200 | 1000 to 10000 | > 50000 | 1000 to 10000 | > 10000 | 1000 to 10000 | – | > 10000 | 1000 to 10000 | 200 to 2000 | – | – | –
O=C(NC1CC1)C(=O)[C@H](C[C@@H]1CCNC1=O)NC(=O)[C@@H]1CC2(CCN1C(=O)c1cc3c(C(F)(F)F)cccc3[nH]1)CC2 [Compound 170] | 20 to 200 | 10000 to 100000 | > 50000 | 100 to 1000 | > 10000 | 1000 to 10000 | – | > 10000 | 1000 to 10000 | 200 to 2000 | – | – | –
COc1ccc2[nH]c(C(=O)N3CCC4(CC4)C[C@H]3C(=O)N[C@@H](C[C@@H]3CCNC3=O)C(=O)C(=O)NC3CC3)cc2c1 [Compound 171] | 20 to 200 | 1000 to 10000 | > 50000 | ≥ 10000 | > 10000 | 1000 to 10000 | – | > 10000 | 1000 to 10000 | – | – | – | 2000 to 20000
Cn1c(C(=O)N2CCC3(CC3)C[C@H]2C(=O)N[C@@H](C[C@@H]2CCNC2=O)C(=O)C(=O)NC2CC2)cc2ccccc21 [Compound 172] | < 20 | < 1000 | > 50000 | 1000 to 10000 | > 10000 | < 1000 | – | > 10000 | 1000 to 10000 | 2000 to 20000 | – | – | –
CC(C)OCCNC(=O)C(=O)[C@H](C[C@@H]1CCNC1=O)NC(=O)[C@@H]1[C@H]2CCC[C@H]2CN1C(=O)c1cc2c(Cl)cc(Cl)cc2[nH]1 [Compound 173] | 20 to 200 | < 1000 | > 50000 | ≥ 10000 | > 10000 | 1000 to 10000 | > 10000 | 1000 to 10000 | 100 to 1000 | – | – | – | –
O=C(NCCOCC1CCCC1)C(=O)[C@H](C[C@@H]1CCNC1=O)NC(=O)[C@@H]1[C@H]2CCC[C@H]2CN1C(=O)c1cc2c(Cl)cc(Cl)cc2[nH]1 [Compound 174] | 20 to 200 | < 1000 | – | 1000 to 10000 | > 10000 | < 1000 | – | 1000 to 10000 | 100 to 1000 | 2000 to 20000 | – | 1000 to 10000 | –
